Reference: article PMC4710522, “A Novel Triazolopyridine-Based Spleen Tyrosine Kinase Inhibitor That Arrests Joint Inflammation” (PLoS ONE, 2016)
“And” between values parts separate entries of the source, which are not always exact repeats. Equal values may be shown once.

Key:
Assay in all cases: SelectScreen kinase assay
Type in all cases: biochemical
[1] = molecular target: T1, Met_M1250T_h (Homo sapiens, UniProt P08581, M1250T); conditions: KM ATP, read-out: % control
T1 construct: purchased Life Technologies (Invitrogen) SelectScreen, Z'-LYTE / Adapta
Outline: (§1)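 Each enzyme is assayed by Z'-Lyte or Adapta with the compound at a constant 3 µM. ATP is used at that enzyme's KM or at 10 or 100 µM. Activity is expressed relative to DMSO-only controls.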

[2] = molecular target: T2, DCAMKL2_h (Homo sapiens, UniProt Q8N568); conditions: KM ATP, read-out: % control
T2 construct: purchased Life Technologies (Invitrogen) SelectScreen, Z'-LYTE / Adapta
Outline: as §1

[3] = molecular target: T3, p38-alpha_h (Homo sapiens, UniProt Q16539); conditions: 100 µM ATP, read-out: % control
T3 construct: purchased Life Technologies (Invitrogen) SelectScreen, Z'-LYTE / Adapta
Outline: as §1

[4] = molecular target: T4, CK1-delta_h (Homo sapiens, UniProt P48730); conditions: KM ATP, read-out: % control
T4 construct: purchased Life Technologies (Invitrogen) SelectScreen, Z'-LYTE / Adapta
T4 sequence (P48730 whole entry): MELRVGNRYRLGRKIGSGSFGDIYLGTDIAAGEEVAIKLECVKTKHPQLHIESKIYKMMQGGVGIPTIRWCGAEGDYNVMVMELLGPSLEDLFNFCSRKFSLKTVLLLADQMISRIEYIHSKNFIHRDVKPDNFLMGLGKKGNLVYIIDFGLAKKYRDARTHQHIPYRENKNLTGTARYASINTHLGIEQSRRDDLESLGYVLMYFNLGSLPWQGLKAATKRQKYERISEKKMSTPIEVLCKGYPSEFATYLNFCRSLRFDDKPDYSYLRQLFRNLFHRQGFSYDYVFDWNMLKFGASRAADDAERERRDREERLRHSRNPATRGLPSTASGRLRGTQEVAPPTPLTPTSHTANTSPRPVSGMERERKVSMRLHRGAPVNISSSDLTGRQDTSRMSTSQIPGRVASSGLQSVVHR
Outline: as §1

[5] = molecular target: T5, MST1_h (Homo sapiens, UniProt Q13043); conditions: KM ATP, read-out: % control
T5 construct: purchased Life Technologies (Invitrogen) SelectScreen, Z'-LYTE / Adapta
Outline: as §1

[6] = molecular target: T6, BRK_h (Homo sapiens, UniProt Q13882); conditions: KM ATP, read-out: % control
T6 construct: purchased Life Technologies (Invitrogen) SelectScreen, Z'-LYTE / Adapta
Outline: as §1

[7] = molecular target: T7, MLK1_h (Homo sapiens, UniProt P80192); conditions: KM ATP, read-out: % control
T7 construct: purchased Life Technologies (Invitrogen) SelectScreen, Z'-LYTE / Adapta
Outline: as §1

[8] = molecular target: T8, TrkC_h (Homo sapiens, UniProt Q16288); conditions: KM ATP, read-out: % control
T8 construct: purchased Life Technologies (Invitrogen) SelectScreen, Z'-LYTE / Adapta
Outline: as §1

[9] = molecular target: T9, EphB3_h (Homo sapiens, UniProt P54753); conditions: KM ATP, read-out: % control
T9 construct: purchased Life Technologies (Invitrogen) SelectScreen, Z'-LYTE / Adapta
Outline: as §1

[10] = molecular target: JAK3_h (Homo sapiens, UniProt P52333)
Sequence of JAK3_h (P52333 whole entry): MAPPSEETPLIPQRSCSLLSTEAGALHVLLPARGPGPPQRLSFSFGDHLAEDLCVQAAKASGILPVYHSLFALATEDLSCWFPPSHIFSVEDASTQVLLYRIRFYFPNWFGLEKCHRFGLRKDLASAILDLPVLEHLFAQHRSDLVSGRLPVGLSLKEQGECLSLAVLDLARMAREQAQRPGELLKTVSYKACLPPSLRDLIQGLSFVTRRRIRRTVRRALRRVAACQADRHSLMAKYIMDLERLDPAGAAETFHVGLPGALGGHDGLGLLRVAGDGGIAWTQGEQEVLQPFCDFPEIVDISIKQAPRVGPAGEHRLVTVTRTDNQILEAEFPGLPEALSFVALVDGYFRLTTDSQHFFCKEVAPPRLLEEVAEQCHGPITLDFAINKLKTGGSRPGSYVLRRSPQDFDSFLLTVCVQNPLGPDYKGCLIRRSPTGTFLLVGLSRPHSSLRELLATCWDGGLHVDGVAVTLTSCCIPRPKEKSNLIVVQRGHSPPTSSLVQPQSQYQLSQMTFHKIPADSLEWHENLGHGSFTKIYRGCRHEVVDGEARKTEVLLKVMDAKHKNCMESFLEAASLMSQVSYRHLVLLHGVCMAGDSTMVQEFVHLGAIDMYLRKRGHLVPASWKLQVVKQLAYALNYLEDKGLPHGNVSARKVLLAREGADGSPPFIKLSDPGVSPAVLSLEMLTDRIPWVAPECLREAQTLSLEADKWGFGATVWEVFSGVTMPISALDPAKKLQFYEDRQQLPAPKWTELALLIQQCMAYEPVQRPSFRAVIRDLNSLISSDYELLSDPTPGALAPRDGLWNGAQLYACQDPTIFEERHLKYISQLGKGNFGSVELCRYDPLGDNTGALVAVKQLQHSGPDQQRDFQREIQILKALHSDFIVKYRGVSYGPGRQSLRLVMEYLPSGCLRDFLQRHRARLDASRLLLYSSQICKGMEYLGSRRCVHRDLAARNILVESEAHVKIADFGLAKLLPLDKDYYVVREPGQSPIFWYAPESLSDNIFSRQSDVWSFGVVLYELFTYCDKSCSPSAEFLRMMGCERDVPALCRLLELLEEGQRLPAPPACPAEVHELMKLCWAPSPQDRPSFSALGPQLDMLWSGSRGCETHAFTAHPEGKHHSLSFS
Outline: as §1

[11] = molecular target: T10, DYRK1B_h (Homo sapiens, UniProt Q9Y463); conditions: KM ATP, read-out: % control
T10 construct: purchased Life Technologies (Invitrogen) SelectScreen, Z'-LYTE / Adapta
Outline: as §1

[12] = molecular target: T11, MST2_h (Homo sapiens, UniProt Q13188); conditions: KM ATP, read-out: % control
T11 construct: purchased Life Technologies (Invitrogen) SelectScreen, Z'-LYTE / Adapta
Outline: as §1

[13] = molecular target: T12, Fer_h (Homo sapiens, UniProt P16591); conditions: KM ATP, read-out: % control
T12 construct: purchased Life Technologies (Invitrogen) SelectScreen, Z'-LYTE / Adapta
Outline: as §1

[14] = molecular target: T13, EphA1_h (Homo sapiens, UniProt P21709); conditions: KM ATP, read-out: % control
T13 construct: purchased Life Technologies (Invitrogen) SelectScreen, Z'-LYTE / Adapta
Outline: as §1

[15] = molecular target: T14, SGK3_h (Homo sapiens, UniProt Q96BR1); conditions: KM ATP, read-out: % control
T14 construct: purchased Life Technologies (Invitrogen) SelectScreen, Z'-LYTE / Adapta
Outline: as §1

[16] = molecular target: T15, Rse_h (Homo sapiens, UniProt Q06418); conditions: KM ATP, read-out: % control
T15 construct: purchased Life Technologies (Invitrogen) SelectScreen, Z'-LYTE / Adapta
Outline: as §1

[17] = molecular target: T16, Abl_h (Homo sapiens, UniProt P00519); conditions: KM ATP, read-out: % control
T16 construct: purchased Life Technologies (Invitrogen) SelectScreen, Z'-LYTE / Adapta
T16 sequence (P00519 whole entry): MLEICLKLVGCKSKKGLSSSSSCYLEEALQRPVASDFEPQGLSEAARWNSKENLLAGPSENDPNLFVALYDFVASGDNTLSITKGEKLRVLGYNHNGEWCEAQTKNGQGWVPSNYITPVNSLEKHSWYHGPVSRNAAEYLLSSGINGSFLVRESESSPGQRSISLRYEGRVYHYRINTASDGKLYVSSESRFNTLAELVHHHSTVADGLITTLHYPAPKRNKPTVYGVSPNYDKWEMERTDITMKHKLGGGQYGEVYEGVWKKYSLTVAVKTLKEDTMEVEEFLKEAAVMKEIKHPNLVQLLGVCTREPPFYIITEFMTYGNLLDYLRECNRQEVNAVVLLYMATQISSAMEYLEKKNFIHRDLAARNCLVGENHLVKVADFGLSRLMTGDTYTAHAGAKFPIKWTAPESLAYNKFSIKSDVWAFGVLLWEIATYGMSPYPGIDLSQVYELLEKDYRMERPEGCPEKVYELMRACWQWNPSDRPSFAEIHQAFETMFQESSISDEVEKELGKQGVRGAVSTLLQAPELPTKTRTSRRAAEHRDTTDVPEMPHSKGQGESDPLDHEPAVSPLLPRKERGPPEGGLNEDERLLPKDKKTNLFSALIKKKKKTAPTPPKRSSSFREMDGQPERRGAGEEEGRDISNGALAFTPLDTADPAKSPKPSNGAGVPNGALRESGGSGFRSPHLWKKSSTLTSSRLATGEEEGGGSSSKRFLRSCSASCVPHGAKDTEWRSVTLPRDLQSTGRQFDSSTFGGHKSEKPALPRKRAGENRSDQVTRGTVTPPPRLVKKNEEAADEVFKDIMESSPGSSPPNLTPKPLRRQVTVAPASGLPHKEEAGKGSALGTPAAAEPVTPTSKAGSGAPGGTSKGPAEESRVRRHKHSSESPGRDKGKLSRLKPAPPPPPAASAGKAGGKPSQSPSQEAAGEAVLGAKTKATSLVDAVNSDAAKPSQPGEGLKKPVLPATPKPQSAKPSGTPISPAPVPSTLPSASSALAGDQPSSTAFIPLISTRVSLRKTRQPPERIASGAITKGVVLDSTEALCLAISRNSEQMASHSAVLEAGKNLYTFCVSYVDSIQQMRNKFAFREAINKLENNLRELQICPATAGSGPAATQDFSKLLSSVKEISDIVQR
Outline: as §1

[18] = molecular target: T17, CDK5_p35_h (Homo sapiens, UniProt Q00535); conditions: KM ATP, read-out: % control
T17 construct: purchased Life Technologies (Invitrogen) SelectScreen, Z'-LYTE / Adapta
T17 sequence (Q00535 whole entry): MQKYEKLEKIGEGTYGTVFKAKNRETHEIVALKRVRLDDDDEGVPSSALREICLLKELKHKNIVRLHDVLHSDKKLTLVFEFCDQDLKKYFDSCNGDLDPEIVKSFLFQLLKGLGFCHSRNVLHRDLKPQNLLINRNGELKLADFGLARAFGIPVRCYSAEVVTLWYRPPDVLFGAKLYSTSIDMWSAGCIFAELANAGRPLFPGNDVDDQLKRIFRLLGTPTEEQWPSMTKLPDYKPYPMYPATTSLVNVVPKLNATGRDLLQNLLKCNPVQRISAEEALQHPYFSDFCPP
T17 sequence (Q15078 whole entry partner): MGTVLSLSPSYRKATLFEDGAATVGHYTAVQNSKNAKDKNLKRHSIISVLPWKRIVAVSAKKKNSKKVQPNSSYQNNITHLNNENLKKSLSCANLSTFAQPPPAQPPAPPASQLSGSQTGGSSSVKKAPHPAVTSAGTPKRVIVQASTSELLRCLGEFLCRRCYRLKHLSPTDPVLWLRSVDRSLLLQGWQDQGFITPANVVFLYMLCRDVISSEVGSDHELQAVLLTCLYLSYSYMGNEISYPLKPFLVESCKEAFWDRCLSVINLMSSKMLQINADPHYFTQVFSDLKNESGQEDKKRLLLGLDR
Outline: as §1

[19] = molecular target: T18, PRKG2_h (Homo sapiens, UniProt Q13237); conditions: KM ATP, read-out: % control
T18 construct: purchased Life Technologies (Invitrogen) SelectScreen, Z'-LYTE / Adapta
Outline: as §1

[20] = molecular target: T19, EGFR_h (Homo sapiens, UniProt P00533); conditions: KM ATP, read-out: % control
T19 construct: purchased Life Technologies (Invitrogen) SelectScreen, Z'-LYTE / Adapta
Outline: as §1

[21] = molecular target: T20, PKC-delta_h (Homo sapiens, UniProt Q05655); conditions: KM ATP, read-out: % control
T20 construct: purchased Life Technologies (Invitrogen) SelectScreen, Z'-LYTE / Adapta
Outline: as §1

[22] = molecular target: T21, PKB-alpha_h (Homo sapiens, UniProt P31749); conditions: KM ATP, read-out: % control
T21 construct: purchased Life Technologies (Invitrogen) SelectScreen, Z'-LYTE / Adapta
Outline: as §1

[23] = molecular target: T22, Lck_h (Homo sapiens, UniProt P06239); conditions: KM ATP, read-out: % control
T22 construct: purchased Life Technologies (Invitrogen) SelectScreen, Z'-LYTE / Adapta
T22 sequence (P06239 whole entry): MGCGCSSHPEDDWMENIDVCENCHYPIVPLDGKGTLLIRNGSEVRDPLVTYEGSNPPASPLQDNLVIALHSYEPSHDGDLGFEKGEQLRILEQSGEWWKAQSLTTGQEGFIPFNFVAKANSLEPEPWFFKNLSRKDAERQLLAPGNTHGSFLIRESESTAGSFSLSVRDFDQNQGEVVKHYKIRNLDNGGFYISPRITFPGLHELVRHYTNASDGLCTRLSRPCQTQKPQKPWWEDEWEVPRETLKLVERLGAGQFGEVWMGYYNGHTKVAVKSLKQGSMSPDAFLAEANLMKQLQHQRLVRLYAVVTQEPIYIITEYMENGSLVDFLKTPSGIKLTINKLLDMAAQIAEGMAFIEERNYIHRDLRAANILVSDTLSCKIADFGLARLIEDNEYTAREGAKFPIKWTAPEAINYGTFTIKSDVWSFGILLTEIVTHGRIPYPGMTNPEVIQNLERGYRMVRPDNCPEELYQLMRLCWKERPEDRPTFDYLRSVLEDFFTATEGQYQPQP
Outline: as §1

[24] = molecular target: T23, MuSK_h (Homo sapiens, UniProt O15146); conditions: KM ATP, read-out: % control
T23 construct: purchased Life Technologies (Invitrogen) SelectScreen, Z'-LYTE / Adapta
Outline: as §1

[25] = molecular target: T24, Flt1_h (Homo sapiens, UniProt P17948); conditions: KM ATP, read-out: % control
T24 construct: purchased Life Technologies (Invitrogen) SelectScreen, Z'-LYTE / Adapta
Outline: as §1

[26] = molecular target: T25, Fyn_h (Homo sapiens, UniProt P06241); conditions: KM ATP, read-out: % control
T25 construct: purchased Life Technologies (Invitrogen) SelectScreen, Z'-LYTE / Adapta
Outline: as §1

[27] = molecular target: T26, ARK5_h (Homo sapiens, UniProt O60285); conditions: KM ATP, read-out: % control
T26 construct: purchased Life Technologies (Invitrogen) SelectScreen, Z'-LYTE / Adapta
Outline: as §1

[28] = molecular target: T27, BRAF V599E (Homo sapiens, UniProt P15056, V600E); conditions: 100 µM ATP, read-out: % control
T27 construct: purchased Life Technologies (Invitrogen) SelectScreen, Z'-LYTE / Adapta
Outline: as §1

[29] = molecular target: T28, BrSK1_h (Homo sapiens, UniProt Q8TDC3); conditions: KM ATP, read-out: % control
T28 construct: purchased Life Technologies (Invitrogen) SelectScreen, Z'-LYTE / Adapta
Outline: as §1

[30] = molecular target: T29, CHK1_h (Homo sapiens, UniProt O14757); conditions: KM ATP, read-out: % control
T29 construct: purchased Life Technologies (Invitrogen) SelectScreen, Z'-LYTE / Adapta
Outline: as §1

[31] = molecular target: T30, PTK5_h (Homo sapiens, UniProt P42685); conditions: KM ATP, read-out: % control
T30 construct: purchased Life Technologies (Invitrogen) SelectScreen, Z'-LYTE / Adapta
Outline: as §1

[32] = molecular target: T31, Itk_h (Homo sapiens, UniProt Q08881); conditions: KM ATP, read-out: % control
T31 construct: purchased Life Technologies (Invitrogen) SelectScreen, Z'-LYTE / Adapta
Outline: as §1

[33] = molecular target: Tyk2_h (Homo sapiens, UniProt P29597)
Sequence of Tyk2_h (P29597 whole entry): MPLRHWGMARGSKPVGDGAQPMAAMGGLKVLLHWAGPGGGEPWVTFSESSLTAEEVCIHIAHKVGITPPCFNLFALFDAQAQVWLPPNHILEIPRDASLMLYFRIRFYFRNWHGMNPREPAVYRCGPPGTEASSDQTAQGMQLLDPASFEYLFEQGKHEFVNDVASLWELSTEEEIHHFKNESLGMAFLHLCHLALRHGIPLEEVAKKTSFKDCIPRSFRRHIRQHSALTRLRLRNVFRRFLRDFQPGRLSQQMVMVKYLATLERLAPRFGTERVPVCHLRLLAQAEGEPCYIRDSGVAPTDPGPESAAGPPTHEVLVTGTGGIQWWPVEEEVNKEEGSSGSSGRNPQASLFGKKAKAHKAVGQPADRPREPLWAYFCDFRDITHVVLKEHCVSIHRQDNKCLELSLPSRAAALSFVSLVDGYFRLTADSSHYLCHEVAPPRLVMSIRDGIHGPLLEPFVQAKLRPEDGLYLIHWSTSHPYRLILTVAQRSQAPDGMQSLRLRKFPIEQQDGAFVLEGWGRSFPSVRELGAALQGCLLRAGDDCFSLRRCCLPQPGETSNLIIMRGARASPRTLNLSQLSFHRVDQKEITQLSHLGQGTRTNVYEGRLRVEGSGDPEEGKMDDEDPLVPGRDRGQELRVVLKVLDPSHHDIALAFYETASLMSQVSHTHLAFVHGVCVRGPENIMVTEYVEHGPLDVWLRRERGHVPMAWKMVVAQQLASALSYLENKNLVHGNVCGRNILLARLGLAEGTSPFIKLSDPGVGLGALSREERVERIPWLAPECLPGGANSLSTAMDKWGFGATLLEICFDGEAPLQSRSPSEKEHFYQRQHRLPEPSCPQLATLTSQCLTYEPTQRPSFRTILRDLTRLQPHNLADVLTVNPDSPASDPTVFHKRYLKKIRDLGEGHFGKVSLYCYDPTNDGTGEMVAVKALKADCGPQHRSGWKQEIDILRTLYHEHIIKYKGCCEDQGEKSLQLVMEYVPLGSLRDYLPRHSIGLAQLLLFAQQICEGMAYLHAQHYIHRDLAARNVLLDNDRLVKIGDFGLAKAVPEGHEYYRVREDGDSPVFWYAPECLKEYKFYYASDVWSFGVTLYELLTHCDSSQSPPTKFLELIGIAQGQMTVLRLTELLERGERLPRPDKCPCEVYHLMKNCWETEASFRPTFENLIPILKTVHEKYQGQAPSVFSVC
Outline: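 Single-point inhibition at 3 µM compound. ATP: KM, 10 µM or 100 µM per enzyme as indicated. Output = % control (DMSO = 100%).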

[34] = molecular target: T32, NEK9_h (Homo sapiens, UniProt Q8TD19); conditions: KM ATP, read-out: % control
T32 construct: purchased Life Technologies (Invitrogen) SelectScreen, Z'-LYTE / Adapta
Outline: as §1

[35] = 3 µM, KM ATP, read-out: % control
[36] = 10-point dose-response, commercial vendor

`c1cc(CC2CCOCC2)n2nc(Nc3ccc4c(NC5CCOCC5)n[nH]c4c3)nc2c1` [CC-509, [3-(2H-3,4,5,6-tetrahydropyran-4-ylamino)(1H-indazol-6-yl)][5-(2H-3,4,5,6-tetrahydropyran-4-ylmethyl)(2H-1,2,4-triazolo[1,5-a]pyridin-2-yl)]amine] showed a remaining activity at 3 µM [1] of 74%, a remaining activity at 3 µM [2] of 98% and a remaining activity at 3 µM [3] of 89%. It also gave a remaining activity at 3 µM [4] of 88%, a remaining activity at 3 µM [5] of 65% and a remaining activity at 3 µM [6] of 87%. The remaining activity at 3 µM [7] was 2%, the remaining activity at 3 µM [8] was 25% and the remaining activity at 3 µM [9] was 42%. The remaining activity at 3 µM [10, 35] was 5%, the IC50 [10, 36] was 0.02 µM and 0.018 µM and the remaining activity at 3 µM [11] was 95%. The remaining activity at 3 µM [12] was 46%, the remaining activity at 3 µM [13] was 40% and the remaining activity at 3 µM [14] was 21%. It also gave a remaining activity at 3 µM [15] of 87%, a remaining activity at 3 µM [16] of 53% and a remaining activity at 3 µM [17] of 19%. For the same compound, the remaining activity at 3 µM [18] was 77%, the remaining activity at 3 µM [19] was 93% and the remaining activity at 3 µM [20] was 97%. It also gave a remaining activity at 3 µM [21] of 91%, a remaining activity at 3 µM [22] of 100% and a remaining activity at 3 µM [23] of 39%. For the same compound, the remaining activity at 3 µM [24] was 41%, the remaining activity at 3 µM [25] was 55% and the remaining activity at 3 µM [26] was 74%. The remaining activity at 3 µM [27] was 7%, the remaining activity at 3 µM [28] was 88% and the remaining activity at 3 µM [29] was 65%. The remaining activity at 3 µM [30] was 94%, the remaining activity at 3 µM [31] was 86% and the remaining activity at 3 µM [32] was 91%. For the same compound, the remaining activity at 3 µM [33, 35] was 3%, the IC50 [33, 36] was 0.11 µM and 0.112 µM and the remaining activity at 3 µM [34] was 95%.
